# Source: ChEMBL document CHEMBL4831514, “Novel betulin dicarboxylic acid ester derivatives as potent antiviral agents: Design, synthesis, biological evaluation, structure-activity relationship and in-silico study” (Eur J Med Chem, 2021)
# Activity calls are given as the source filed them. The calls are words filed in the database; no cut-off is given here.
# Tested on: Vesicular stomatitis virus
# Experiment: Antiviral activity against Vesicular stomatitis virus Indiana infected in A549 cells assessed as inhibition of viral adsorption at early stage of replication treated for 1 hr during viral infection followed by replacement with fresh medium and measured after 48 hrs by MTT assay
# Format: functional, organism-based
row,SMILES,Activity
1,C#CCNC(=O)c1ccccc1C(=O)OC[C@]12CC[C@@H](C(=C)C)[C@@H]1[C@H]1CC[C@@H]3[C@@]4(C)CC[C@H](O)C(C)(C)[C@@H]4CC[C@@]3(C)[C@]1(C)CC2,inactive
2,C=C(C)[C@@H]1CC[C@]2(COC(=O)c3ccccc3C(=O)N3CCSCC3)CC[C@]3(C)[C@H](CC[C@@H]4[C@@]5(C)CC[C@H](O)C(C)(C)[C@@H]5CC[C@]43C)[C@@H]12,inactive
3,C=C(C)[C@@H]1CC[C@]2(COC(=O)c3cccc(C(=O)N4CCCCC4)c3)CC[C@]3(C)[C@H](CC[C@@H]4[C@@]5(C)CC[C@H](O)C(C)(C)[C@@H]5CC[C@]43C)[C@@H]12,inactive
4,"C=C(C)[C@@H]1CC[C@]2(COC(=O)CCC(=O)N3CCCCC3)CC[C@]3(C)[C@H](CC[C@@H]4[C@@]5(C)CCC(O)C(C)(C)[C@@H]5CC[C@]43C)[C@@H]12 (single isomer, unassigned)",inactive
5,C=C(C)[C@@H]1CC[C@]2(COC(=O)CSCC(=O)O)CC[C@]3(C)[C@H](CC[C@@H]4[C@@]5(C)CC[C@H](O)C(C)(C)[C@@H]5CC[C@]43C)[C@@H]12,inactive
6,C=C(C)[C@@H]1CC[C@]2(COC(=O)c3cccc(C(=O)O)c3)CC[C@]3(C)[C@H](CC[C@@H]4[C@@]5(C)CC[C@H](O)C(C)(C)[C@@H]5CC[C@]43C)[C@@H]12,inactive
7,C=C(C)[C@@H]1CC[C@]2(COC(=O)/C=C(\C)C(=O)N3CCCCC3)CC[C@]3(C)[C@H](CC[C@@H]4[C@@]5(C)CC[C@H](O)C(C)(C)[C@@H]5CC[C@]43C)[C@@H]12,inactive
8,C#CC1(NC(=O)c2ccccc2C(=O)OC[C@]23CC[C@@H](C(=C)C)[C@@H]2[C@H]2CC[C@@H]4[C@@]5(C)CC[C@H](O)C(C)(C)[C@@H]5CC[C@@]4(C)[C@]2(C)CC3)CCCCC1,inactive
9,C#CC1(NC(=O)c2cccc(C(=O)OC[C@]34CC[C@@H](C(=C)C)[C@@H]3[C@H]3CC[C@@H]5[C@@]6(C)CC[C@H](O)C(C)(C)[C@@H]6CC[C@@]5(C)[C@]3(C)CC4)c2)CCCCC1,inactive
10,C#CC1(NC(=O)CCC(=O)OC[C@]23CC[C@@H](C(=C)C)[C@@H]2[C@H]2CC[C@@H]4[C@@]5(C)CC[C@H](O)C(C)(C)[C@@H]5CC[C@@]4(C)[C@]2(C)CC3)CCCCC1,inactive
11,Nc1ccn(C[C@@H](CO)OCP(=O)(O)O)c(=O)n1.O.O [CIDOFOVIR],inactive
12,"C#CC1(NC(=O)CCCCCCCCCC(=O)OC[C@]23CC[C@@H](C(=C)C)[C@@H]2[C@H]2CCC4[C@@]5(C)CC[C@H](O)C(C)(C)[C@@H]5CC[C@@]4(C)[C@]2(C)CC3)CCCCC1 (single isomer, unassigned)",inactive
13,C=C(C)[C@@H]1CC[C@]2(COC(=O)/C=C(\C)C(=O)N3CCOCC3)CC[C@]3(C)[C@H](CC[C@@H]4[C@@]5(C)CC[C@H](O)C(C)(C)[C@@H]5CC[C@]43C)[C@@H]12,inactive
14,C=C(C)[C@@H]1CC[C@]2(COC(=O)CCCCCCCCCC(=O)N3CCOCC3)CC[C@]3(C)[C@H](CC[C@@H]4[C@@]5(C)CC[C@H](O)C(C)(C)[C@@H]5CC[C@]43C)[C@@H]12,inactive
15,C=C(C)[C@@H]1CC[C@]2(COC(=O)c3ccccc3C(=O)N3CCOCC3)CC[C@]3(C)[C@H](CC[C@@H]4[C@@]5(C)CC[C@H](O)C(C)(C)[C@@H]5CC[C@]43C)[C@@H]12,inactive
16,C=C(C)[C@@H]1CC[C@]2(COC(=O)CCCCCCCCCC(=O)O)CC[C@]3(C)[C@H](CC[C@@H]4[C@@]5(C)CC[C@H](O)C(C)(C)[C@@H]5CC[C@]43C)[C@@H]12,inactive
17,NC(=O)c1ncn([C@@H]2O[C@H](CO)[C@@H](O)[C@H]2O)n1 [RIBAVIRIN],inactive
18,C=C(C)[C@@H]1CC[C@]2(COC(=O)CCCC(=O)N3CCSCC3)CC[C@]3(C)[C@H](CC[C@@H]4[C@@]5(C)CC[C@H](O)C(C)(C)[C@@H]5CC[C@]43C)[C@@H]12,inactive
19,C=C(C)[C@@H]1CC[C@]2(COC(=O)CCCC(=O)N3CCOCC3)CC[C@]3(C)[C@H](CC[C@@H]4[C@@]5(C)CC[C@H](O)C(C)(C)[C@@H]5CC[C@]43C)[C@@H]12,inactive
20,C=C(C)[C@@H]1CC[C@]2(COC(=O)/C=C/C(=O)O)CC[C@]3(C)[C@H](CC[C@@H]4[C@@]5(C)CC[C@H](O)C(C)(C)[C@@H]5CC[C@]43C)[C@@H]12,inactive
21,C#CC1(NC(=O)/C(C)=C/C(=O)OC[C@]23CC[C@@H](C(=C)C)[C@@H]2[C@H]2CC[C@@H]4[C@@]5(C)CC[C@H](O)C(C)(C)[C@@H]5CC[C@@]4(C)[C@]2(C)CC3)CCCCC1,inactive

row,SMILES,Activity
1,C=C(C)[C@@H]1CC[C@]2(COC(=O)CCCC(=O)O)CC[C@]3(C)[C@H](CC[C@@H]4[C@@]5(C)CC[C@H](O)C(C)(C)[C@@H]5CC[C@]43C)[C@@H]12,inactive
2,"C#CCNC(=O)c1cccc(C(=O)OC[C@]23CC[C@@H](C(=C)C)[C@@H]2[C@H]2CC[C@@H]4C5(C)CC[C@H](O)C(C)(C)[C@@H]5CC[C@@]4(C)[C@]2(C)CC3)c1 (single isomer, unassigned)",inactive
3,C#CCNC(=O)/C(C)=C/C(=O)OC[C@]12CC[C@@H](C(=C)C)[C@@H]1[C@H]1CC[C@@H]3[C@@]4(C)CC[C@H](O)C(C)(C)[C@@H]4CC[C@@]3(C)[C@]1(C)CC2,inactive
4,"C=C(C)[C@@H]1CC[C@]2(COC(=O)c3ccccc3C(=O)N3CCCCC3)CC[C@]3(C)[C@H](CC[C@H]4C3(C)CC[C@H]3C(C)(C)[C@@H](O)CC[C@@]34C)[C@@H]12 (single isomer, unassigned)",inactive
5,C=C(C)[C@@H]1CC[C@]2(COC(=O)CCC(=O)N3CCOCC3)CC[C@]3(C)[C@H](CC[C@@H]4[C@@]5(C)CC[C@H](O)C(C)(C)[C@@H]5CC[C@]43C)[C@@H]12,inactive
6,C=C(C)[C@@H]1CC[C@]2(COC(=O)CCCCCCCCCC(=O)N3CCCCC3)CC[C@]3(C)[C@H](CC[C@@H]4[C@@]5(C)CC[C@H](O)C(C)(C)[C@@H]5CC[C@]43C)[C@@H]12,inactive
7,C#CCNC(=O)CCCCCCCCCC(=O)OC[C@]12CC[C@@H](C(=C)C)[C@@H]1[C@H]1CC[C@@H]3[C@@]4(C)CC[C@H](O)C(C)(C)[C@@H]4CC[C@@]3(C)[C@]1(C)CC2,inactive
8,C=C(C)[C@@H]1CC[C@]2(COC(=O)/C=C(\C)C(=O)O)CC[C@]3(C)[C@H](CC[C@@H]4[C@@]5(C)CC[C@H](O)C(C)(C)[C@@H]5CC[C@]43C)[C@@H]12,inactive
9,C=C(C)[C@@H]1CC[C@]2(COC(=O)c3ccccc3C(=O)O)CC[C@]3(C)[C@H](CC[C@@H]4[C@@]5(C)CC[C@H](O)C(C)(C)[C@@H]5CC[C@]43C)[C@@H]12,inactive
10,"C=C(C)[C@@H]1CCC2(COC(=O)CCCCCCCCCC(=O)N3CCSCC3)CC[C@]3(C)[C@H](CC[C@@H]4[C@@]5(C)CC[C@H](O)C(C)(C)[C@@H]5CC[C@]43C)[C@@H]12 (single isomer, unassigned)",inactive
11,Nc1nc2c(ncn2COCCO)c(=O)[nH]1 [ACYCLOVIR],inactive
12,C=C(C)[C@@H]1CC[C@]2(COC(=O)c3cccc(C(=O)N4CCOCC4)c3)CC[C@]3(C)[C@H](CC[C@@H]4[C@@]5(C)CC[C@H](O)C(C)(C)[C@@H]5CC[C@]43C)[C@@H]12,inactive
13,"C#CCNC(=O)CCC(=O)OC[C@]12CC[C@@H](C(=C)C)C1[C@H]1CC[C@@H]3[C@@]4(C)CC[C@H](O)C(C)(C)[C@@H]4CC[C@@]3(C)[C@]1(C)CC2 (single isomer, unassigned)",inactive
14,"C#CC1(NC(=O)CCCC(=O)OC[C@]23CCC(C(=C)C)[C@@H]2[C@H]2CC[C@@H]4[C@@]5(C)CC[C@H](O)C(C)(C)[C@@H]5CC[C@@]4(C)[C@]2(C)CC3)CCCCC1 (single isomer, unassigned)",inactive
15,"C=C(C)[C@@H]1CC[C@]2(COC(=O)c3cccc(C(=O)N4CCSCC4)c3)CC[C@]3(C)[C@H](CC[C@@H]4[C@@]5(C)CC[C@H](O)C(C)(C)[C@@H]5CC[C@]43C)C12 (single isomer, unassigned)",inactive
16,C=C(C)[C@@H]1CC[C@]2(COC(=O)/C=C(\C)C(=O)N3CCSCC3)CC[C@]3(C)[C@H](CC[C@@H]4[C@@]5(C)CC[C@H](O)C(C)(C)[C@@H]5CC[C@]43C)[C@@H]12,inactive
17,C=C(C)[C@@H]1CC[C@]2(COC(=O)CCC(=O)N3CCSCC3)CC[C@]3(C)[C@H](CC[C@@H]4[C@@]5(C)CC[C@H](O)C(C)(C)[C@@H]5CC[C@]43C)[C@@H]12,inactive
18,"C=C(C)[C@@H]1CC[C@]2(COC(=O)CCC(=O)O)CC[C@]3(C)[C@H](CC[C@@H]4[C@@]5(C)CCC(O)C(C)(C)[C@@H]5CC[C@]43C)[C@@H]12 (single isomer, unassigned)",inactive
19,C=C(C)[C@@H]1CC[C@]2(COC(=O)CCCC(=O)N3CCCCC3)CC[C@]3(C)[C@H](CC[C@@H]4[C@@]5(C)CC[C@H](O)C(C)(C)[C@@H]5CC[C@]43C)[C@@H]12,inactive
20,C=C(C)[C@@H]1CC[C@]2(CO)CC[C@]3(C)[C@H](CC[C@@H]4[C@@]5(C)CC[C@H](O)C(C)(C)[C@@H]5CC[C@]43C)[C@@H]12 [BETULIN],inactive
21,C#CCNC(=O)CCCC(=O)OC[C@]12CC[C@@H](C(=C)C)[C@@H]1[C@H]1CC[C@@H]3[C@@]4(C)CC[C@H](O)C(C)(C)[C@@H]4CC[C@@]3(C)[C@]1(C)CC2,inactive
